From PubChem BioAssay (NCI) come the findings set out here.

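In this assay, cells in 96-well plates receive the compound at five concentrations for 48 hours. Endpoints are linearly interpolated between the surrounding concentrations. TGI: concentration producing complete growth inhibition.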 Some results are limits rather than exact numbers.

Among the test systems are A498 renal; DU-145 prostate; HCT-15 colon; K-562 leukemia; KM12 colon; NCI/ADR-RES ovarian; OVCAR-4 ovarian; OVCAR-8 ovarian; PC-3 prostate.
What all share (experiment): NCI anticancer screen, dose series, 48 h

Turning to `Cc1ccc2c(c1)C(=O)/C(=C\c1ccc(Cl)cc1)CCS2(=O)=O`, the TGI with A498 renal is 26.4 µM; with DU-145 prostate it was 8.15 µM; in the assay on HCT-15 colon, 5.01 µM; in the assay with K-562 leukemia it was 3.32 µM; with KM12 colon, 7.71 µM; in the assay on NCI/ADR-RES ovarian it was 5.52 µM. Besides, the TGI in the assay on OVCAR-4 ovarian is 6.93 µM; with OVCAR-8 ovarian it was 5.39 µM; with PC-3 prostate, 39.1 µM.

With `CNc1ccc2c(c1)Cc1ccccc1-2`, the TGI was 71.1 µM with A498 renal; greater than 100 µM in the assay on DU-145 prostate; greater than 100 µM with HCT-15 colon; greater than 100 µM with K-562 leukemia; 99.5 µM in the assay on KM12 colon; greater than 100 µM with NCI/ADR-RES ovarian. Besides, the TGI in the assay with OVCAR-4 ovarian was greater than 100 µM; in the assay with OVCAR-8 ovarian it was 59.6 µM; with PC-3 prostate, greater than 100 µM.

`CN(C)c1nc(=NCc2ccccn2)ss1`: the TGI with A498 renal is greater than 10 µM; in the assay with DU-145 prostate it was greater than 10 µM; in the assay with HCT-15 colon, greater than 10 µM; in the assay with K-562 leukemia it was greater than 9.63 µM; with KM12 colon, greater than 10 µM; in the assay on NCI/ADR-RES ovarian, greater than 10 µM. The TGI with OVCAR-4 ovarian, with OVCAR-8 ovarian and in the assay with PC-3 prostate was greater than 10 µM each time.

For `Cc1cccc(NC(Nc2cccc(C)c2)=C(C(Cl)=C(Cl)Cl)[N+](=O)[O-])c1`, the TGI in the assay on A498 renal was greater than 86 µM; in the assay with DU-145 prostate, greater than 57.5 µM; with HCT-15 colon, 33.1 µM; in the assay with K-562 leukemia, greater than 100 µM; in the assay with KM12 colon, 49.5 µM; in the assay on NCI/ADR-RES ovarian it was 35.4 µM. Besides, the results for the TGI in the assay on OVCAR-4 ovarian, in the assay on OVCAR-8 ovarian and in the assay on PC-3 prostate were greater than 82 µM, 27.6 µM and greater than 92.9 µM, respectively.

As to `CCN(C(=O)N[C@H](C(=O)N[C@@H](C)C(=O)OC)C(C)C)c1ccccc1`, the TGI in the assay with A498 renal, with DU-145 prostate, with HCT-15 colon, in the assay with K-562 leukemia, in the assay on KM12 colon and with NCI/ADR-RES ovarian was greater than 100 µM in each case. The results for the TGI in the assay on OVCAR-4 ovarian, in the assay on OVCAR-8 ovarian and in the assay on PC-3 prostate were greater than 100 µM, 63.2 µM and greater than 100 µM, respectively.

With `COC(=O)C1=C(C)N2[C@H](C(=O)O)CS[C@@]2(C)[C@H](C(=O)OC)[C@H]1c1cccc([N+](=O)[O-])c1`, the TGI with A498 renal, with DU-145 prostate, in the assay with HCT-15 colon, with K-562 leukemia, with KM12 colon and in the assay on NCI/ADR-RES ovarian was greater than 100 µM each time. Moreover, the TGI with OVCAR-4 ovarian, in the assay on OVCAR-8 ovarian and with PC-3 prostate was greater than 100 µM throughout.

For the molecule `Nc1n[nH]c2ccccc12`, the TGI in the assay with A498 renal, in the assay on DU-145 prostate, with HCT-15 colon, with K-562 leukemia, with KM12 colon and with NCI/ADR-RES ovarian was greater than 100 µM in each case. The TGI with OVCAR-4 ovarian, with OVCAR-8 ovarian and with PC-3 prostate was greater than 100 µM in each case.

Turning to `O=CN(O)CC(=O)O`, the TGI in the assay with A498 renal, in the assay with DU-145 prostate, in the assay with HCT-15 colon, in the assay with K-562 leukemia, in the assay with KM12 colon and in the assay on NCI/ADR-RES ovarian was greater than 100 µM in each case. For the same molecule, the TGI in the assay with OVCAR-4 ovarian, with OVCAR-8 ovarian and in the assay on PC-3 prostate was greater than 100 µM throughout.

Take `CC(C)(C)OC(=O)c1ccc(NCc2cc(O)ccc2O)cc1`: the TGI is 19.5 µM with A498 renal; 43.3 µM with DU-145 prostate; 3.12 µM in the assay with HCT-15 colon; 38.1 µM in the assay on K-562 leukemia; 12.2 µM in the assay with KM12 colon; 12.5 µM in the assay with NCI/ADR-RES ovarian. The TGI is 5.59 µM with OVCAR-4 ovarian, greater than 55.2 µM in the assay with OVCAR-8 ovarian and 3.75 µM in the assay with PC-3 prostate.

For the molecule `Cc1cn(C2CC(OC(c3ccccc3)(c3ccccc3)c3ccccc3)C(COC(c3ccccc3)(c3ccccc3)c3ccccc3)O2)c(=O)[nH]c1=O` (centres undefined), the TGI is 73.8 µM in the assay with A498 renal; greater than 100 µM in the assay with DU-145 prostate; greater than 100 µM in the assay on HCT-15 colon; greater than 100 µM in the assay on K-562 leukemia; greater than 100 µM in the assay on KM12 colon; greater than 100 µM in the assay on NCI/ADR-RES ovarian. In addition, the TGI with OVCAR-4 ovarian, in the assay with OVCAR-8 ovarian and in the assay with PC-3 prostate was greater than 100 µM in each case.

With `COc1ccc(/C=N/Nc2nc3ccccc3c(=O)n2-c2ccccc2)c(OCc2ccccc2)c1`, the TGI in the assay with A498 renal, with DU-145 prostate, with HCT-15 colon, in the assay on K-562 leukemia, in the assay on KM12 colon and in the assay on NCI/ADR-RES ovarian was greater than 100 µM throughout. The TGI in the assay with OVCAR-4 ovarian, with OVCAR-8 ovarian and in the assay with PC-3 prostate was greater than 100 µM in each case.

As to `Clc1cccc(C2ON=C(c3ccccc3)N2C23CC4CC(CC(C4)C2)C3)c1Cl` (centres undefined), the TGI with A498 renal, in the assay on DU-145 prostate, in the assay on HCT-15 colon, in the assay with K-562 leukemia, with KM12 colon and with NCI/ADR-RES ovarian was greater than 10 µM throughout. Moreover, the TGI in the assay on OVCAR-4 ovarian, with OVCAR-8 ovarian and in the assay on PC-3 prostate was greater than 10 µM in each case.

With `CCOC(=O)c1ccc(C(=O)/C(C(=O)OC(C)(C)C)=C2\CCCN2C)n1C`, the TGI with A498 renal, with DU-145 prostate, with HCT-15 colon, in the assay on K-562 leukemia, with KM12 colon and in the assay on NCI/ADR-RES ovarian was greater than 100 µM throughout. The TGI in the assay on OVCAR-4 ovarian, in the assay with OVCAR-8 ovarian and in the assay with PC-3 prostate was greater than 100 µM in each case.

Take `CC(C)(C)c1ccc2c(c1)OCc1n[nH]c(n1)COc1cc(C(C)(C)C)ccc1OCCOCCO2`: the TGI was 21.3 µM in the assay with A498 renal; 20.6 µM in the assay on DU-145 prostate; 18.3 µM with HCT-15 colon; greater than 100 µM in the assay on K-562 leukemia; 15.1 µM with KM12 colon; 12.4 µM in the assay on NCI/ADR-RES ovarian. Besides, the TGI in the assay on OVCAR-4 ovarian worked out at 7.45 µM; with OVCAR-8 ovarian, 14.3 µM; in the assay on PC-3 prostate, 7.59 µM.

With `O=c1oc2ccccc2c2nc3ccccc3cc12`, the TGI in the assay with A498 renal is 96.4 µM; with DU-145 prostate it was greater than 100 µM; in the assay with HCT-15 colon it was greater than 100 µM; in the assay on K-562 leukemia it was greater than 100 µM; in the assay on KM12 colon it was greater than 100 µM; in the assay on NCI/ADR-RES ovarian, greater than 100 µM. Also, the TGI in the assay on OVCAR-4 ovarian is 47.7 µM; in the assay on OVCAR-8 ovarian, greater than 100 µM; in the assay with PC-3 prostate, greater than 100 µM.

For the molecule `CC1OC(n2cc(F)c(=O)[nH]c2=O)C(O[Si](C)(C)C(C)(C)C)C1O[Si](C)(C)C(C)(C)C` (centres undefined), the TGI in the assay with A498 renal amounted to 27.3 µM; with DU-145 prostate it was 26.8 µM; in the assay with HCT-15 colon, 25.6 µM; in the assay with K-562 leukemia, 36.1 µM; in the assay with KM12 colon, 26.1 µM; in the assay on NCI/ADR-RES ovarian, 27.7 µM. Besides, the TGI in the assay on OVCAR-4 ovarian was found to be 16.8 µM; in the assay on OVCAR-8 ovarian it was 28.9 µM; in the assay on PC-3 prostate, 27.3 µM.

Take `O=S1(=O)c2ccccc2NC(=S)N1c1ccccc1`: the TGI was greater than 94.5 µM in the assay with A498 renal; greater than 100 µM with DU-145 prostate; greater than 100 µM in the assay with HCT-15 colon; greater than 100 µM in the assay on K-562 leukemia; greater than 100 µM in the assay on KM12 colon; greater than 100 µM in the assay with NCI/ADR-RES ovarian. For the same molecule, the TGI in the assay on OVCAR-4 ovarian, in the assay with OVCAR-8 ovarian and in the assay on PC-3 prostate was greater than 100 µM each time.

As to `CC(O)(C(=O)N(O)c1ccc(Cl)cc1)c1ccc(Cl)cc1` (centres undefined), the TGI in the assay with A498 renal is 71.7 µM; with DU-145 prostate, greater than 100 µM; in the assay on HCT-15 colon, 65.7 µM; in the assay with K-562 leukemia, 43.1 µM; with KM12 colon, greater than 100 µM; in the assay on NCI/ADR-RES ovarian, 86.6 µM. Moreover, the TGI in the assay on OVCAR-4 ovarian was greater than 100 µM; with OVCAR-8 ovarian, greater than 100 µM; in the assay with PC-3 prostate, 73 µM.

For `COc1cc(/C=C/C(=O)O)ccc1OS(=O)(=O)O`, the TGI in the assay on A498 renal, in the assay with DU-145 prostate, with HCT-15 colon, in the assay on K-562 leukemia, in the assay with KM12 colon and in the assay on NCI/ADR-RES ovarian was greater than 100 µM each time. In addition, the TGI in the assay on OVCAR-4 ovarian, in the assay with OVCAR-8 ovarian and with PC-3 prostate was greater than 100 µM each time.

For `CC/C=C\C/C=C\C/C=C\CCCCCCCC(=O)OC(COC(=O)CCCCCCCCCCCCCCCCC)COC1OC(CO)C(O)C(O)C1O` (centres undefined), the TGI with A498 renal, in the assay on DU-145 prostate, in the assay with HCT-15 colon, in the assay on K-562 leukemia, with KM12 colon and in the assay with NCI/ADR-RES ovarian was greater than 25 µM throughout. In addition, the TGI with OVCAR-4 ovarian, in the assay with OVCAR-8 ovarian and with PC-3 prostate was greater than 25 µM throughout.

With `CC1=CCC[C@H]2[C@](C)(CC3=CC(=O)C4SCCSC4C3=O)[C@@H](C)CC[C@]12C` (some centres undefined), the TGI in the assay on A498 renal was 31.2 µM; in the assay with DU-145 prostate, 66.9 µM; with HCT-15 colon it was 67.1 µM; with K-562 leukemia it was 96.2 µM; in the assay with KM12 colon, greater than 100 µM; in the assay on NCI/ADR-RES ovarian, 47.2 µM. In addition, the TGI in the assay on OVCAR-4 ovarian is greater than 100 µM; in the assay on OVCAR-8 ovarian it was 39.6 µM; in the assay with PC-3 prostate it was 49.4 µM.
